Data published in ChEMBL document CHEMBL1667859 (Bioorg Med Chem, 2011).

target: 5-hydroxytryptamine receptor 6 (Homo sapiens, UniProt P50406)
Sequence (P50406 whole entry): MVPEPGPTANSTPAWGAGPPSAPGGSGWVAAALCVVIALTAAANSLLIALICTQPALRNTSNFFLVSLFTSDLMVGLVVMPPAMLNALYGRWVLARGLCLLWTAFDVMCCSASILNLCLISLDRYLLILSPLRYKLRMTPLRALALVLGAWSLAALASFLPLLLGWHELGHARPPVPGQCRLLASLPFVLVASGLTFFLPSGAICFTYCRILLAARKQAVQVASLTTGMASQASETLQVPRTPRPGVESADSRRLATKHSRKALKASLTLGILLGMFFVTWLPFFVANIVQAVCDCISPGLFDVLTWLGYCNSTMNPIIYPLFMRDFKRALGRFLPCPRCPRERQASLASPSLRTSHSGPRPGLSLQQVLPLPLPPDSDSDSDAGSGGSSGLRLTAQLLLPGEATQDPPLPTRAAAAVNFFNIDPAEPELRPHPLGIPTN
Description: Antagonist activity at human recombinant 5HT6 receptor expressed in HEK293 cells assessed as inhibition of serotonin-induced cAMP accumulation after 2 hrs

Ki [nM] | SMILES
1.2 | CSc1nn2c(C)cc(C)nc2c1S(=O)(=O)c1ccccc1
0.269 | CNc1nn2c(C)cc(COC)nc2c1S(=O)(=O)c1ccccc1
0.282 | CNc1nn2c(CO)cc(C)nc2c1S(=O)(=O)c1ccccc1
3.24 | COCc1cc(C)n2nc(SC)c(S(=O)(=O)c3ccccc3)c2n1
0.562 | CSc1nn2c(CO)cc(C)nc2c1S(=O)(=O)c1ccccc1
2.14 | CSc1nn2c(C)cc(CO)nc2c1S(=O)(=O)c1ccccc1
3.89 | CNc1nn2cccnc2c1S(=O)(=O)c1ccccc1
0.257 | CNc1nn2c(C)cc(C)nc2c1S(=O)(=O)c1ccccc1
1.45 | CNc1nn2ccc(C)nc2c1S(=O)(=O)c1ccccc1
0.24 | CNc1nn2c(C)ccnc2c1S(=O)(=O)c1ccccc1
7.59 | CNc1nn2c(COC)cc(C)nc2c1S(=O)(=O)c1ccccc1
0.479 | CNc1nn2c(C)cc(CO)nc2c1S(=O)(=O)c1ccccc1
0.186 | CNc1nn2c(C)cc(C)nc2c1S(=O)(=O)c1cccc(Cl)c1
0.501 | CNc1nn2c(C)cc(C)nc2c1S(=O)(=O)c1cccc(F)c1
0.398 | CNc1nn2c(C)cc(C)nc2c1S(=O)(=O)c1ccc(F)cc1
2 | CNc1nn2c(C)cc(C)nc2c1S(=O)(=O)c1ccc(O)cc1

More lines, now with the values behind:

SMILES | Ki [nM]
CSc1nn2cccnc2c1S(=O)(=O)c1ccccc1 | 115
CSc1nn2ccc(C)nc2c1S(=O)(=O)c1ccccc1 | 16.6
CSc1nn2c(C)ccnc2c1S(=O)(=O)c1ccccc1 | 16.6
COCc1cc(C)nc2c(S(=O)(=O)c3ccccc3)c(SC)nn12 | 155
CSc1nn2cccnc2c1S(=O)(=O)c1cccc(Cl)c1 | 15.1
CSc1nn2c(C)cc(C)nc2c1S(=O)(=O)c1cccc(Cl)c1 | 0.759
CSc1nn2c(C)cc(C)nc2c1S(=O)(=O)c1cccc(F)c1 | 1.07
CSc1nn2c(C)cc(C)nc2c1S(=O)(=O)c1ccc(Cl)cc1 | 3.16
CSc1nn2c(C)cc(C)nc2c1S(=O)(=O)c1ccc(F)cc1 | 6.76
CSc1nn2cccnc2c1S(=O)(=O)c1ccc(F)cc1 | 132
CSc1nn2c(C)cc(C)nc2c1S(=O)(=O)c1ccc(O)cc1 | 3.98
COc1ccc(S(=O)(=O)c2c(SC)nn3c(C)cc(C)nc23)cc1 | 37.2
CSc1nn2c(C)cc(C)nc2c1S(=O)(=O)c1ccc(N(C)C)cc1 | 37.2
CSc1nn2cccnc2c1S(=O)(=O)c1ccc(F)c(Cl)c1 | 44.7
CSc1nn2c(C)cc(C)nc2c1S(=O)(=O)c1ccc(F)c(Cl)c1 | 3.8
CSc1nn2ccc(C)nc2c1S(=O)(=O)c1ccc(F)c(Cl)c1 | 7.94
CNc1nn2cccnc2c1S(=O)(=O)c1cccc(Cl)c1 | 1.17
CNc1nn2cccnc2c1S(=O)(=O)c1ccc(F)cc1 | 11.7
CNc1nn2c(C)cc(C)nc2c1S(=O)(=O)c1ccc(OC)cc1 | 9.55
CNc1nn2c(C)cc(C)nc2c1S(=O)(=O)c1ccc(F)c(Cl)c1 | 0.603
